Assays:
Type in all cases: in vivo
Setaria viridis = assay: Test Example 5: herbicidal effect by foliage application, plastic box (symbol G); details: 320 g/ha, 3 weeks after application
Procedure, shortened: (§1)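 Greenhouse foliar test: seedlings at 14 days, grown 25° C. to 30° C. in sterilized diluvial soil; compound applied as an aqueous dilution of an emulsion; response read 3 weeks after spraying.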

Abutilon theophrasti = assay: Test Example 5: herbicidal effect by foliage application, plastic box (symbol M); details: 320 g/ha, 3 weeks after application
Procedure, shortened: as §1

beet = assay: Test Example 4: effect on crop by soil treatment (symbol f); details: for f: beet, effect on crop grade: application herbicide amount 320 g/ha
Procedure, shortened: (§2)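 Plants grew in a 25° C. to 30° C. greenhouse after spot-sowing of seeds, including beet, rapeseed, wheat and rice, into sterilized diluvial soil under roughly 1.5 cm of cover soil.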

Lolium multiflorum Lam. = assay: Test Example 4: herbicidal effect by soil treatment (symbol K)
Procedure, shortened: (§3)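 Seeds were sown in sterilized diluvial soil, covered with about 1.5 cm of soil, and the soil surface was sprayed with a water-diluted emulsion of the compound at a predetermined rate. Plants grew in a greenhouse at 25° C. to 30° C.; effects were scored visually 3 weeks after application.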

Scirpus juncoides = assay: Test Example 1: herbicidal activity, application before weed generation in submerged conditions (symbol B); details: application herbicide amount 320 g/ha
Procedure, shortened: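 In a flooded pot test with alluvial soil, the emulsion-formulated compound was diluted with water to a predetermined amount and applied to the floodwater immediately on the sowing day. Pots were held in a greenhouse at 25–30 °C for 3 weeks before each weed was rated.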

Stellaria media = assay: Test Example 5: herbicidal effect by foliage application, plastic box (symbol P); details: 320 g/ha, 3 weeks after application
Procedure, shortened: as §1

rice = assay: Test Example 4: effect on crop by soil treatment (symbol b); details: for b: directly sowed rice plant, effect on crop grade: application herbicide amount 320 g/ha
Procedure, shortened: as §2

Galium spurium = assay: Test Example 5: herbicidal effect by foliage application, plastic box (symbol Q); details: 320 g/ha, 3 weeks after application
Procedure, shortened: as §1

Amaranthus retroflexus = assay: Test Example 4: herbicidal effect by soil treatment (symbol N)
Procedure, shortened: as §3

Cyperus difformis = assay: Test Example 3: herbicidal effect by foliage application, Wagner pot (symbol E); details: application herbicide amount 320 g/ha
Procedure, shortened: (§4)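 Alluvial soil was flooded to a depth of 0.1–0.5 cm, seeded with the weeds and rice, and kept in a greenhouse at 25–30 °C. After 14 days of growth, the foliage received a small-sprayer application of emulsion diluted to the intended rate; injury was rated at 3 weeks.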

Alopecurus myosuroides = assay: Test Example 5: herbicidal effect by foliage application, plastic box (symbol J); details: 320 g/ha, 3 weeks after application
Procedure, shortened: as §1

Leptochloa chinensis = assay: Test Example 3: herbicidal effect by foliage application, Wagner pot (symbol D); details: application herbicide amount 320 g/ha
Procedure, shortened: as §4

[1] = test system: Echinochloa crus-galli var. crus-galli; assay: Test Example 4: herbicidal effect by soil treatment (symbol H)
Procedure, shortened: as §3

rice plant = assay: Test Example 5: effect on crop by foliage application, plastic box (symbol b); details: 320 g/ha, 3 weeks after application
Procedure, shortened: (§5)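 Crop seed is sown alongside grass and broadleaf weed species in spots in sterilized diluvial soil, then covered to a depth of about 1.5 cm. Plants grow in a greenhouse kept at 25° C. to 30° C.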

Chenopodium album = assay: Test Example 5: herbicidal effect by foliage application, plastic box (symbol O); details: 320 g/ha, 3 weeks after application
Procedure, shortened: as §1

soybean = assay: Test Example 5: effect on crop by foliage application, plastic box (symbol d); details: 320 g/ha, 3 weeks after application
Procedure, shortened: as §5

Digitaria ciliaris = assay: Test Example 4: herbicidal effect by soil treatment (symbol F)
Procedure, shortened: as §3

Veronica persica = assay: Test Example 5: herbicidal effect by foliage application, plastic box (symbol R); details: 320 g/ha, 3 weeks after application
Procedure, shortened: as §1

[2] = application herbicide amount 320 g/ha

SMILES | G: Setaria viridis, herbicidal effect grade (Setaria viridis) | M: Abutilon theophrasti, herbicidal effect grade (Abutilon theophrasti) | f: beet, effect on crop grade (beet) | K: Lolium multiflorum Lam., herbicidal effect grade (Lolium multiflorum Lam.; [2]) | Herbicidal effect grade, B: Scirpus juncoides (Scirpus juncoides) | P: Stellaria media, herbicidal effect grade (Stellaria media) | b: directly sowed rice plant, effect on crop grade (rice) | Q: Galium spurium, herbicidal effect grade (Galium spurium) | N: Amaranthus retroflexus, herbicidal effect grade (Amaranthus retroflexus; [2]) | herbicidal effect on E, grade 0-5 (Cyperus difformis) | J: Alopecurus myosuroides, herbicidal effect grade (Alopecurus myosuroides) | herbicidal effect on D (Leptochloa chinensis), grade 0-5 (Leptochloa chinensis) | H: Echinochloa crus-galli var. crus-galli, herbicidal effect grade [1, 2] | b: directly sowed rice plant, effect on crop grade (rice plant) | O: Chenopodium album, herbicidal effect grade (Chenopodium album) | d: soybean, effect on crop grade (soybean) | F: Digitaria ciliaris, herbicidal effect grade (Digitaria ciliaris; [2]) | further results
CCc1cc(C#C[Si](C)(C)C)cc(C)c1C1=C(O)CC(CC(C)=NOC)C1=O (mixture of isomers) [6-008] | 5 (Herbicidal ratio of 90% or more (almost completely withered)) | 0 (Herbicidal ratio of 5% or lower (almost no effect)) | 0 (Herbicidal ratio of 5% or lower (almost no effect)) | 5 (Herbicidal ratio of 90% or more (almost completely withered)) | 5 (Herbicidal ratio of 90% or more (almost completely withered)) | 0 (Herbicidal ratio of 5% or lower (almost no effect)) | 5 (Herbicidal ratio of 90% or more (almost completely withered)) | 0 (Herbicidal ratio of 5% or lower (almost no effect)) | 0 (Herbicidal ratio of 5% or lower (almost no effect)) | 5 (Herbicidal ratio of 90% or more (almost completely withered)) | 5 (Herbicidal ratio of 90% or more (almost completely withered)) | 5 (Herbicidal ratio of 90% or more (almost completely withered)) | 5 (Herbicidal ratio of 90% or more (almost completely withered)) | 3 (Herbicidal ratio of 40% or higher and lower than 70%) | 0 (Herbicidal ratio of 5% or lower (almost no effect)) | 1 (Herbicidal ratio of 5% or higher and lower than 20%) | 5 (Herbicidal ratio of 90% or more (almost completely withered)) | –
CC#Cc1cc(C)c(C2=C(O)CC(CC(C)=NOC)C2=O)c(C)c1 (mixture of isomers) [6-009] | 5 (Herbicidal ratio of 90% or more (almost completely withered)) | 3 (Herbicidal ratio of 40% or higher and lower than 70%) | 2 (Herbicidal ratio of 20% or higher and lower than 40%) | 5 (Herbicidal ratio of 90% or more (almost completely withered)) | 2 (Herbicidal ratio of 20% or higher and lower than 40%) | – | 5 (Herbicidal ratio of 90% or more (almost completely withered)) | 0 (Herbicidal ratio of 5% or lower (almost no effect)) | 5 (Herbicidal ratio of 90% or more (almost completely withered)) | 0 (Herbicidal ratio of 5% or lower (almost no effect)) | 5 (Herbicidal ratio of 90% or more (almost completely withered)) | 5 (Herbicidal ratio of 90% or more (almost completely withered)) | 5 (Herbicidal ratio of 90% or more (almost completely withered)) | 5 (Herbicidal ratio of 90% or more (almost completely withered)) | 2 (Herbicidal ratio of 20% or higher and lower than 40%) | 3 (Herbicidal ratio of 40% or higher and lower than 70%) | 5 (Herbicidal ratio of 90% or more (almost completely withered)) | –
CON=C(C)CC1CC(O)=C(c2c(C)cc(C#CC3CC3)cc2C)C1=O (mixture of isomers) [6-010] | 5 (Herbicidal ratio of 90% or more (almost completely withered)) | 0 (Herbicidal ratio of 5% or lower (almost no effect)) | 0 (Herbicidal ratio of 5% or lower (almost no effect)) | 5 (Herbicidal ratio of 90% or more (almost completely withered)) | 4 (Herbicidal ratio of 70% or higher and lower than 90%) | 0 (Herbicidal ratio of 5% or lower (almost no effect)) | 5 (Herbicidal ratio of 90% or more (almost completely withered)) | 0 (Herbicidal ratio of 5% or lower (almost no effect)) | 1 (Herbicidal ratio of 5% or higher and lower than 20%) | 5 (Herbicidal ratio of 90% or more (almost completely withered)) | 5 (Herbicidal ratio of 90% or more (almost completely withered)) | 5 (Herbicidal ratio of 90% or more (almost completely withered)) | 5 (Herbicidal ratio of 90% or more (almost completely withered)) | 5 (Herbicidal ratio of 90% or more (almost completely withered)) | 3 (Herbicidal ratio of 40% or higher and lower than 70%) | 3 (Herbicidal ratio of 40% or higher and lower than 70%) | 5 (Herbicidal ratio of 90% or more (almost completely withered)) | –
CON=C(C)CC1CC(OS(=O)(=O)CCCCl)=C(c2c(C)cc(C)cc2C)C1=O (centres unmarked) [1-142] | – | – | – | – | 5 (Herbicidal ratio of 90% or more (almost completely withered)) | – | – | – | – | – | – | 5 (Herbicidal ratio of 90% or more (almost completely withered)) | – | – | – | – | – | G: Setaria viridis, herbicidal effect (criteria 0-5) (Setaria viridis): 5 (Herbicidal ratio of 90% or more (almost completely withered)); M: Abutilon theophrasti, herbicidal effect (criteria 0-5) (Abutilon theophrasti): 4 (Herbicidal ratio of 70% or higher and lower than 90%); f: beet, effect grade on crop (beet; 320 g/ha): 0 (Herbicidal ratio of 5% or lower (almost no effect)); K: Lolium multiflorum Lam., herbicidal effect grade (Lolium multiflorum Lam.; 320 g/ha): 5 (Herbicidal ratio of 90% or more (almost completely withered)); P: Stellaria media, herbicidal effect (criteria 0-5) (Stellaria media): 3 (Herbicidal ratio of 40% or higher and lower than 70%); b: directly sowed rice plant, effect grade on crop (rice; 320 g/ha): 5 (Herbicidal ratio of 90% or more (almost completely withered)); R: Veronica persica, herbicidal effect (criteria 0-5) (Veronica persica): 3 (Herbicidal ratio of 40% or higher and lower than 70%); Q: Galium spurium, herbicidal effect (criteria 0-5) (Galium spurium): 3 (Herbicidal ratio of 40% or higher and lower than 70%); N: Amaranthus retroflexus, herbicidal effect grade (Amaranthus retroflexus; 320 g/ha): 0 (Herbicidal ratio of 5% or lower (almost no effect)); J: Alopecurus myosuroides, herbicidal effect (criteria 0-5) (Alopecurus myosuroides): 5 (Herbicidal ratio of 90% or more (almost completely withered)); H: Echinochloa crus-galli var. crus-galli, herbicidal effect grade ([1]; 320 g/ha): 5 (Herbicidal ratio of 90% or more (almost completely withered)); b: directly sowed rice plant, effect on crop (criteria 0-5) (rice plant): 5 (Herbicidal ratio of 90% or more (almost completely withered)); O: Chenopodium album, herbicidal effect (criteria 0-5) (Chenopodium album): 2 (Herbicidal ratio of 20% or higher and lower than 40%); d: soybean, effect on crop (criteria 0-5) (soybean): 3 (Herbicidal ratio of 40% or higher and lower than 70%); F: Digitaria ciliaris, herbicidal effect grade (Digitaria ciliaris; 320 g/ha): 5 (Herbicidal ratio of 90% or more (almost completely withered))
CCC(=O)CCC1CC(OC)=C(c2c(C)cc(C)cc2C)C1=O (centres unmarked) [5-002] | 0 (Herbicidal ratio of 5% or lower (almost no effect)) | 0 (Herbicidal ratio of 5% or lower (almost no effect)) | 0 (Herbicidal ratio of 5% or lower (almost no effect)) | 0 (Herbicidal ratio of 5% or lower (almost no effect)) | 0 (Herbicidal ratio of 5% or lower (almost no effect)) | – | 0 (Herbicidal ratio of 5% or lower (almost no effect)) | 0 (Herbicidal ratio of 5% or lower (almost no effect)) | 0 (Herbicidal ratio of 5% or lower (almost no effect)) | 0 (Herbicidal ratio of 5% or lower (almost no effect)) | 0 (Herbicidal ratio of 5% or lower (almost no effect)) | 0 (Herbicidal ratio of 5% or lower (almost no effect)) | 0 (Herbicidal ratio of 5% or lower (almost no effect)) | 0 (Herbicidal ratio of 5% or lower (almost no effect)) | 0 (Herbicidal ratio of 5% or lower (almost no effect)) | 0 (Herbicidal ratio of 5% or lower (almost no effect)) | 0 (Herbicidal ratio of 5% or lower (almost no effect)) | –

Reference: patent US11000033B2, “Ketone or oxime compound, and herbicide” (NISSAN CHEMICAL CORPORATION, priority 2014, dated 2021)
